Literature values in PMC9884426, “A phase 1 clinical trial of the repurposable acetyllysine mimetic, n-methyl-2-pyrrolidone (NMP), in relapsed or refractory multiple myeloma” (Clinical Epigenetics, 2023).

Design: method as in PMID 9029058
Conditions: human, cited from earlier work; for elimination half-life: NMP metabolites; for amount found in urine: after a single 100 mg oral dose of NMP

Row | SMILES | elimination half-life | amount found in urine
1 | CN1C(=O)CCC1=O [MSI, N-methylsuccinimide] | 8 h | 0.4%
2 | CN1C(=O)CCC1O (centres unmarked) [5-HNMP, 5-hydroxy-N-methyl-2-pyrrolidone] | – | 44%
3 | CN1C(=O)CC(O)C1=O (centres unmarked) [2-HMSI, 2-hydroxy-N-methylsuccinimide] | 17 h | 20%
